Source: patent publication US12161722B2, “Bifunctional heterocyclic compound having BTK degradation function via ubiquitin proteasome pathway, and use thereof” (KOREA RESEARCH INSTITUTE OF CHEMICAL TECHNOLOGY, priority 2021, dated 2024)

What was measured:
C481S BTK protein = biological target: T1, C481S BTK protein (Homo sapiens, UniProt Q06187, C481S); assay: BTK protein degradation assay (Western blotting), C481S BTK; type: cell-based; details: concentration range accounting for 50% degradation of C481S BTK protein, 293T BTK MUT (C481S) cells
T1 construct: expressed in transfected cells; host or cells: 293T BTK MUT (C481S) cells
In short: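 TMD-8, RAMOS or 293T BTK C481S cells were treated 24 h with compounds from 10-fold DMSO stock series (10 to 0.0001 mM). BTK was measured by Western blot with GAPDH/β-actin references. Activity was binned by concentration giving 50% degradation: +++ (0.0001-0.01 μM), ++ (0.01-1 μM), + (1-10 μM), − (>10 μM).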

WT BTK protein = biological target: T2, WT BTK protein (Homo sapiens, UniProt Q06187); assay: BTK protein degradation assay (Western blotting), WT BTK; type: cell-based; details: concentration range accounting for 50% degradation of WT BTK protein, TMD-8 or RAMOS cells, 24 hours
T2 construct: measured for intracellular BTK protein levels by Western blotting; endogenous in cells; host or cells: TMD-8 or RAMOS cells
In short: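 BTK levels were read by Western blotting (GAPDH and β-actin normalisers) in RIPA lysates of TMD-8 cells exposed to compounds for 24 h at 1×10^6 cells/mL. Results scored in ranges of the concentration producing 50% loss of WT BTK.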

T2 sequence (Q06187 whole entry): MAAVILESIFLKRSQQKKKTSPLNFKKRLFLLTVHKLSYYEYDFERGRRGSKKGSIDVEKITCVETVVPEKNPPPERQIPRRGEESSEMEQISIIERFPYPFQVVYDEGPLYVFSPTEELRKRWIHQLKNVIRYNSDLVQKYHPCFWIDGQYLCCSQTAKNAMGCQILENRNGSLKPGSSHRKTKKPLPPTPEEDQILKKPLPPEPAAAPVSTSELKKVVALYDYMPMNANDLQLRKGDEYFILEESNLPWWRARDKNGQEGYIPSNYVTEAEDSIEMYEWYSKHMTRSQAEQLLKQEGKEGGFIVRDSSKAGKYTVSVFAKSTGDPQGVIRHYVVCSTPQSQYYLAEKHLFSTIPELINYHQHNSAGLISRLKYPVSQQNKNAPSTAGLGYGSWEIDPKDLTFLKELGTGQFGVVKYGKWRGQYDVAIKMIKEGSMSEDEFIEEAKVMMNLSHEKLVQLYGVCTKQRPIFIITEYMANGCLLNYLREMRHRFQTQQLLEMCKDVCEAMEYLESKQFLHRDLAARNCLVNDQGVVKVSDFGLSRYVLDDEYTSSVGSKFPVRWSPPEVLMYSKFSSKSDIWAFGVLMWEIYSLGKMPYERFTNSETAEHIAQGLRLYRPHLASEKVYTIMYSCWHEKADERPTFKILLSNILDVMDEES
T1 sequence (Q06187 whole entry C481S): as the sequence (Q06187 whole entry) above, with C481S counted along it

DC50 (C481S BTK protein) | DC50 (WT BTK protein) | SMILES
0.1 to 10 nM | 0.1 to 10 nM | Cc1cccc(Cl)c1Nc1nn(C)c2nc(Nc3ccc4c(c3)CN(CC3CCN(c5ccc6c(c5)C(=O)N(C5CCC(=O)NC5=O)C6=O)CC3)CC4)ncc12 (centres unmarked) [Compound 85, 5-(4-((7-((3-((2-Chloro-6-methylphenyl)amino)-1-methyl-1H-pyrazolo[3,4-d]pyrimidin-6-yl)amino)-3,4-dihydroisoquinolin-2 (1H)-yl)methyl)piperidin-1-yl)-2-(2,6-dioxopiperidin-3-yl)isoindoline-1,3-dione]
0.1 to 10 nM | 0.1 to 10 nM | Cc1cccc(C)c1Nc1nn(C)c2nc(Nc3ccc4c(c3)CN(C3CCN(c5ccc6c(c5)C(=O)N(C5CCC(=O)NC5=O)C6=O)CC3)CC4)ncc12 (centres unmarked) [Compound 88, 5-(4-(7-((3-((2,6-dimethylphenyl)amino)-1-methyl-1H-pyrazolo[3,4-d]pyrimidin-6-yl)amino)-3,4-dihydroisoquinolin-2 (1H)-yl)piperidin-1-yl)-2-(2,6-dioxopiperidin-3-yl)isoindoline-1,3-dione]
0.1 to 10 nM | 0.1 to 10 nM | Cc1cccc(C)c1Nc1nn(C)c2nc(Nc3ccc4c(c3)CN(C[C@H]3CCN(c5ccc6c(c5)C(=O)N(C5CCC(=O)NC5=O)C6=O)C3)CC4)ncc12 (stereo partly drawn) [Compound 144, 5-((R)-3-((7-((3-((2,6-dimethylphenyl)amino)-1-methyl-1H-pyrazolo[3,4-d]pyrimidin-6-yl)amino)-3,4-dihydroisoquinolin-2 (1H)-yl)methyl)pyrrolidin-1-yl)-2-(2,6-dioxopiperidin-3-yl)isoindoline-1,3-dione]
0.1 to 10 nM | 0.1 to 10 nM | Cc1cccc(C)c1Nc1nn(C)c2nc(Nc3ccc4c(c3)CN(C3CN(CC5CCN(c6ccc7c(c6)C(=O)N(C6CCC(=O)NC6=O)C7=O)CC5)C3)CC4)ncc12 (centres unmarked) [Compound 149, 5-(4-((3-(7-((3-((2,6-Dimethylphenyl)amino)-1-methyl-1H-pyrazolo[3,4-d]pyrimidin-6-yl)amino)-3,4-dihydroisoquinolin-2 (1H)-yl)azetidin-1-yl)methyl)piperidin-1-yl)-2-(2,6-dioxopiperidin-3-yl)isoindoline-1,3-dione]
